The values below come from patent publication US8592404B2, “Derivatives of porphyrin, particularly chlorins and/or bacteriochlorins, and uses thereof in photodynamic therapy” (Universidade de Coimbra, priority 2004, dated 2013).

The conditions of data set [1]: deuterated water, 7.4 pH; cited from earlier work.
The nature of data set [2]: Fluorescence quantum yield. It counts as physicochemical.
A short description of data set [3]: Lifetime of the triplet state in aqueous solution. It counts as physicochemical.
Data set [4] in a line: Quantum yield of the formation of singlet oxygen (phosphorescence at 1270 nm versus reference photosensitizer TPPS). The note with it: deuterated aqueous solution. It counts as physicochemical. The text has this: According to the present invention, the reference photosensitizer used in meso-tetrakis(3-sulfophenyl)porphyrin (TPPS) whereof the value for the quantum yield of the formation of singlet oxygen in deuterated water is 0.64 at 7.4 pH (photochem. Photobiol, 70: 391, 1999).

Data set [5] in a line: Lifetime of singlet oxygen. It counts as physicochemical. The note with it: in deuterated water.

Where two headings read alike, the source gives them in different places.

With `O=S(=O)(O)c1cccc(-c2c3nc(c(-c4cccc(S(=O)(=O)O)c4)c4ccc([nH]4)c(-c4cccc(S(=O)(=O)O)c4)c4nc(c(-c5cccc(S(=O)(=O)O)c5)c5ccc2[nH]5)C=C4)C=C3)c1` [TPPS, meso-tetrakis(3-sulfophenyl)porphyrin], the “Quantum yield of the formation of singlet oxygen” value in data set [1] is recorded as 0.64.
For bacteriochlorin, in data set [2], the Fluorescence quantum yield was determined as 0.013. The “Lifetime of the triplet state” value in data set [3] (air-saturated aqueous solution) is 3.88 μs; in data set [3] (nitrogen-saturated aqueous solution), 235 μs. The “Quantum yield of the formation of singlet oxygen” value in data set [4] is recorded as “greater than 30%”. The “Lifetime of singlet oxygen” value in data set [5] is recorded as 65 μs.
